Data taken from paper PMC6407917, “Identification of GSK3186899/DDD853651 as a Preclinical Development Candidate for the Treatment of Visceral Leishmaniasis” (Journal of Medicinal Chemistry, 2018).

What was measured:
Assay in all cases: biochemical
Set-up in all cases: species or system HEK293/K-562/placenta mixed human extract; Kinobeads chemoproteomic competition binding, quantified by TMT LC-MS/MS, dose response up to 20 uM
[1] = target: PKN1 (Homo sapiens, UniProt Q16512)
[2] = target: PRKAA1 (Homo sapiens, UniProt Q13131)
[3] = target: YWHAG (Homo sapiens, UniProt P61981)
[4] = target: CSNK1D (Homo sapiens, UniProt P48730)
[5] = target: MAPKAPK3 (Homo sapiens, UniProt Q16644)
[6] = target: MAP3K7 (Homo sapiens, UniProt O43318)
[7] = target: CAMK1 (Homo sapiens, UniProt Q14012)
[8] = target: TESK2 (Homo sapiens, UniProt Q96S53)
[9] = target: PRKX (Homo sapiens, UniProt P51817)
[10] = target: MAPK9 (Homo sapiens, UniProt P45984)
[11] = target: LYN (Homo sapiens, UniProt P07948)
[12] = target: MAP2K2 (Homo sapiens, UniProt P36507)
[13] = target: IKBKG (Homo sapiens, UniProt Q9Y6K9)
[14] = target: RB1CC1 (Homo sapiens, UniProt Q8TDY2)
[15] = target: TEC (Homo sapiens, UniProt P42680)
[16] = target: LIMK2 (Homo sapiens, UniProt P53671)
[17] = target: MAP3K11 (Homo sapiens, UniProt Q16584)
[18] = target: PIM1 (Homo sapiens, UniProt P11309)
[19] = target: STK16 (Homo sapiens, UniProt O75716)
[20] = target: PRKD3 (Homo sapiens, UniProt O94806)
[21] = target: EPHB1 (Homo sapiens, UniProt P54762)

Measured: IC50

Sequence of PKN1 (Q16512 whole entry): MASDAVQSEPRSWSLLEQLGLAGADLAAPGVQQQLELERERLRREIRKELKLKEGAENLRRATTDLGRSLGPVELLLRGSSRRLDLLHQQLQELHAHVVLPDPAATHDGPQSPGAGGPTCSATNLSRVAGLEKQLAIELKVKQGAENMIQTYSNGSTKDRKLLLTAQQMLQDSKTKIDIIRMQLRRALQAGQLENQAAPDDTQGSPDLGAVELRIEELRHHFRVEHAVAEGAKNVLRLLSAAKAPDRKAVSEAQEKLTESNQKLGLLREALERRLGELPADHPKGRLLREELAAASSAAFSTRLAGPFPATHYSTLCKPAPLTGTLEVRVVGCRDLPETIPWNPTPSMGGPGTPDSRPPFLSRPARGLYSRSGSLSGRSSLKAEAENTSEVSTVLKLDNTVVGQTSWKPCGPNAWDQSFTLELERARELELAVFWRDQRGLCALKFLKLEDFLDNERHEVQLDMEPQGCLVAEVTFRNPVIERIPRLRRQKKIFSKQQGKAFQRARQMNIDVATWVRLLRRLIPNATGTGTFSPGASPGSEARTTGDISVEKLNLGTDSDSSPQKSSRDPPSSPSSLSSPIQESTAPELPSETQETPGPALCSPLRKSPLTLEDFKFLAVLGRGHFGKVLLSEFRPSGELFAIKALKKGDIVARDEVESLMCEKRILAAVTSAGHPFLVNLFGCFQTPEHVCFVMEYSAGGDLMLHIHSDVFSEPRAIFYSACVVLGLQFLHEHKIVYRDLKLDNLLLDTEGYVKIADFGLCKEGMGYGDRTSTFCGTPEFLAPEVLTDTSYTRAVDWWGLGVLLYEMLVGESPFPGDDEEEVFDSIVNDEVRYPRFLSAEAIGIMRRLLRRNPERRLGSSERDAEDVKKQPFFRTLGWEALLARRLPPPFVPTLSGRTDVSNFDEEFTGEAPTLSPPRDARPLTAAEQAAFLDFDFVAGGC
Sequence of IKBKG (Q9Y6K9 whole entry): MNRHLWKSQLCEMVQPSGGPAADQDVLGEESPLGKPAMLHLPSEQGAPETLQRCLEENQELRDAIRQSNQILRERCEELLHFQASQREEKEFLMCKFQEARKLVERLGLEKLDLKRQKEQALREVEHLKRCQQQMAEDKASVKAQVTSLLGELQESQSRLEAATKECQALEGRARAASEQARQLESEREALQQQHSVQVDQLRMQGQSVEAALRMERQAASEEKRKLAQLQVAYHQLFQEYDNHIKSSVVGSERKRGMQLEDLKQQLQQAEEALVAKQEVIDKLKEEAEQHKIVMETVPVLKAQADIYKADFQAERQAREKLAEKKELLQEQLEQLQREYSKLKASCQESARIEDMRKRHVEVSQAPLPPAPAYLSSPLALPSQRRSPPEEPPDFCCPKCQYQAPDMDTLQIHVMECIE
Sequence of MAPK9 (P45984 whole entry): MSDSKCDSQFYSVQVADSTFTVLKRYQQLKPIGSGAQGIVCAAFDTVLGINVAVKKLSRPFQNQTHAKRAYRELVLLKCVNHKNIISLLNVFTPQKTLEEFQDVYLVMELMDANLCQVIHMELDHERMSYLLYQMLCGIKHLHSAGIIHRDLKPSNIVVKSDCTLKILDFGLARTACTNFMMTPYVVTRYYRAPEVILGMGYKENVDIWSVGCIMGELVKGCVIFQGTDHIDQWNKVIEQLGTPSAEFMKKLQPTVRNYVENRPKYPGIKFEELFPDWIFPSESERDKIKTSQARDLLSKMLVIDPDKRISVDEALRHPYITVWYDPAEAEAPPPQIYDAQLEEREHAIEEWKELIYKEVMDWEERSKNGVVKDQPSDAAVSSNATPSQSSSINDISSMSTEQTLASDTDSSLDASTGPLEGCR
Sequence of MAP3K11 (Q16584 whole entry): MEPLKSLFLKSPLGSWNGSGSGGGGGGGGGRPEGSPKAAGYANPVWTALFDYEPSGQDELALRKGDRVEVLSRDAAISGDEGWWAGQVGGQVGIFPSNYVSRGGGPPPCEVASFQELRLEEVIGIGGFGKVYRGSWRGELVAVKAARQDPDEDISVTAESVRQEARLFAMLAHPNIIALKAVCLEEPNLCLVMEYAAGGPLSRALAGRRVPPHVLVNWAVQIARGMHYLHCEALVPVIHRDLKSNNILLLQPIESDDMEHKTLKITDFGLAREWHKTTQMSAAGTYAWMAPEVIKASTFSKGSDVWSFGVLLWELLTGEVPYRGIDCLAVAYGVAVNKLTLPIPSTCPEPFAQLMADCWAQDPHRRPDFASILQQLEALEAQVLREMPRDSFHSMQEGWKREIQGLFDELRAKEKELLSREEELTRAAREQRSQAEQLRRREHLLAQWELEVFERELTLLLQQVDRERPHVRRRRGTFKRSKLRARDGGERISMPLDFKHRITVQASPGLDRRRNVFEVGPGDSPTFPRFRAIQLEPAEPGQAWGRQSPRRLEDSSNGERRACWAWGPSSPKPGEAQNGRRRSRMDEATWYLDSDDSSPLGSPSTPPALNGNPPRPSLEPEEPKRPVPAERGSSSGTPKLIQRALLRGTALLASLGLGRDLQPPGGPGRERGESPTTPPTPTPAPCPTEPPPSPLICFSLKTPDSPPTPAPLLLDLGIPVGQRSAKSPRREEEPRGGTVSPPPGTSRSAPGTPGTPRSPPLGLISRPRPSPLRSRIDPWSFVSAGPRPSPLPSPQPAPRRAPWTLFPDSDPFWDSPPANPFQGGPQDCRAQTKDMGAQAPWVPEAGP
Sequence of EPHB1 (P54762 whole entry): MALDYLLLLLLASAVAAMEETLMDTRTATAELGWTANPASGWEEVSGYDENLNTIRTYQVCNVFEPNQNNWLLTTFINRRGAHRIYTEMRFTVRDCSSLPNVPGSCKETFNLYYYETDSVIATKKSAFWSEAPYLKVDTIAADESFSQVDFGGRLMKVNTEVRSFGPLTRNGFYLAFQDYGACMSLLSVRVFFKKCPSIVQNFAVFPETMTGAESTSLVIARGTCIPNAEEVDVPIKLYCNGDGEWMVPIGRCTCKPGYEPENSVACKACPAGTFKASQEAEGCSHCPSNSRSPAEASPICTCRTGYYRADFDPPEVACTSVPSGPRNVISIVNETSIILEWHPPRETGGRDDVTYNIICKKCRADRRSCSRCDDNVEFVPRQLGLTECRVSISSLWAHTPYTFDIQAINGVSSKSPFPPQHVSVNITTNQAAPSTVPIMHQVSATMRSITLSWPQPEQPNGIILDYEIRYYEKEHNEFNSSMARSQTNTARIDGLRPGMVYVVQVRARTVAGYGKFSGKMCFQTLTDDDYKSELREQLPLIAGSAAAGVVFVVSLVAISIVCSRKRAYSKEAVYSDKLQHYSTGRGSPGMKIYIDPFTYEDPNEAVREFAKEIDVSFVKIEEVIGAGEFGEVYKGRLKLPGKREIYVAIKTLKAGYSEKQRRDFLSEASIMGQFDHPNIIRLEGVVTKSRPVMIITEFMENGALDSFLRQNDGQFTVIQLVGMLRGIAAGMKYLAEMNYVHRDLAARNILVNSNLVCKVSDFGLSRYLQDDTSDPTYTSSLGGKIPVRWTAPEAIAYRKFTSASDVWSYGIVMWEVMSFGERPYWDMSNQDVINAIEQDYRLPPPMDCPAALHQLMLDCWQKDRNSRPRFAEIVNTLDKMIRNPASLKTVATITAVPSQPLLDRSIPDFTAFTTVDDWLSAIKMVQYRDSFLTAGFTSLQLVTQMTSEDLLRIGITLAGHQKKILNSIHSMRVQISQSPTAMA
Sequence of MAP3K7 (O43318 whole entry): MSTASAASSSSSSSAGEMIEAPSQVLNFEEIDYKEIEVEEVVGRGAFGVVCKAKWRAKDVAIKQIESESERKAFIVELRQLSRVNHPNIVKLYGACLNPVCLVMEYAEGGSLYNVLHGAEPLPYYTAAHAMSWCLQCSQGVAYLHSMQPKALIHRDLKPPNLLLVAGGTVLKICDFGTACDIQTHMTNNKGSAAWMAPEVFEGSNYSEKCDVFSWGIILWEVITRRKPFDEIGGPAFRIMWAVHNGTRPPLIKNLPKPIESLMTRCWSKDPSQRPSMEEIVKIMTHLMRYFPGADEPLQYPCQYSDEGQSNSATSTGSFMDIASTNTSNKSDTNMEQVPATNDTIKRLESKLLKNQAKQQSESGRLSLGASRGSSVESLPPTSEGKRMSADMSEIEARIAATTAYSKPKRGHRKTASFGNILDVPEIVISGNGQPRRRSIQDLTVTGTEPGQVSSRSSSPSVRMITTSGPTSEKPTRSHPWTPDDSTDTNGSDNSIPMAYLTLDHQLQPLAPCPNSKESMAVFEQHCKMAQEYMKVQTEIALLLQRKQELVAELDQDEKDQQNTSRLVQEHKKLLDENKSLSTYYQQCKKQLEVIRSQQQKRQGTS
Sequence of CAMK1 (Q14012 whole entry): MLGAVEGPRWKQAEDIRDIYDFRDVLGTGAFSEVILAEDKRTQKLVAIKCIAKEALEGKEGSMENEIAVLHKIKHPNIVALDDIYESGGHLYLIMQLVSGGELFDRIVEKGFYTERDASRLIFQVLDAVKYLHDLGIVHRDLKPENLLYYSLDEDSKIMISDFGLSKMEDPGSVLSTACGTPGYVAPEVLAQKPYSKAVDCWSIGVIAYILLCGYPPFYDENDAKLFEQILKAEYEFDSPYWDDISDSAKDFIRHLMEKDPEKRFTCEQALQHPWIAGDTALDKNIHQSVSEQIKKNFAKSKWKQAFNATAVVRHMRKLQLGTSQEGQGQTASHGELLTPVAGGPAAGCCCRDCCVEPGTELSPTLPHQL
Sequence of CSNK1D (P48730 whole entry): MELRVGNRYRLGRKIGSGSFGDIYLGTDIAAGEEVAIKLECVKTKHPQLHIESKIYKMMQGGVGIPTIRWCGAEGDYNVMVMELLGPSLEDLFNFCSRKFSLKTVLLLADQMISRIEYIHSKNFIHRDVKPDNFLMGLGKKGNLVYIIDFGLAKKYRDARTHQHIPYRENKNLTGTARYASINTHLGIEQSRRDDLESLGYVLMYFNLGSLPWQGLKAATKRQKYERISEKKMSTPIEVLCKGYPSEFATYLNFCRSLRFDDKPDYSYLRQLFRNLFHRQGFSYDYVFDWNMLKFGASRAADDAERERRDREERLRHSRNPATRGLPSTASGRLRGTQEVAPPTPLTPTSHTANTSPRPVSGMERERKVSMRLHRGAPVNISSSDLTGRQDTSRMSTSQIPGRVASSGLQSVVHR

COc1nc(N[C@H]2CC[C@H](NS(=O)(=O)CC(C)C)CC2)nc2[nH]nc(N3CCOC[C@H]3C)c12 [compound 39, N-(trans-4-((4-Methoxy-3-((R)-3-methylmorpholino)-1H-pyrazolo[3,4-d]pyrimidin-6-yl)amino)cyclohexyl)-2-methylpropane-1-sulfonamide]
≥ 20 µM: all assays above
